Legend:
Tribolium castaneum [1] = assay: Feeding deterrent activity against Tribolium castaneum (red flour beetle) adults using wheat flour assessed as consumption of diet at 1000 ppm measured after 3 days relative to untreated control; type: functional
Tribolium castaneum [2] = assay: Feeding deterrent activity against Tribolium castaneum (red flour beetle) adults using wheat flour assessed as consumption of diet at 100 ppm measured after 3 days relative to untreated control; type: functional
Tribolium castaneum [3] = assay: Feeding deterrent activity against Tribolium castaneum (red flour beetle) adults using wheat flour assessed as consumption of diet at 10 ppm measured after 3 days relative to untreated control; type: functional
Tribolium castaneum [4] = assay: Feeding deterrent activity against Tribolium castaneum (red flour beetle) adults using wheat flour assessed as consumption of diet at 300 ppm measured after 3 days relative to untreated control; type: functional
Tribolium castaneum [5] = assay: Feeding deterrent activity against Tribolium castaneum (red flour beetle) adults using wheat flour assessed as consumption of diet at 30 ppm measured after 3 days relative to untreated control; type: functional
Tribolium castaneum [6] = assay: Feeding deterrent activity against Tribolium castaneum (red flour beetle) adults using wheat flour assessed as inhibition of insect feeding measured after 3 days; type: functional, organism-based
[7] = Toxicity in iv dosed Mus musculus (mouse); type: organism-based; details: in vivo
[8] = Toxicity in ip dosed Mus musculus (mouse); type: organism-based; details: in vivo
[9] = Toxicity in po dosed Mus musculus (mouse); type: organism-based; details: in vivo

| SMILES | Activity (Tribolium castaneum [1]) | Activity (Tribolium castaneum [2]) | Activity (Tribolium castaneum [3]) | Activity (Tribolium castaneum [4]) | Activity (Tribolium castaneum [5]) | EC50 (Tribolium castaneum [6]) | LD50 [7] | LD50 [8] | LD50 [9] |
| --- | --- | --- | --- | --- | --- | --- | --- | --- | --- |
| CCN1C[C@]2(COC)CC[C@H](OC)[C@]34C1[C@H]([C@H](OC)[C@H]23)[C@@]1(O)C[C@H](OC)[C@H]2C[C@@H]4[C@@H]1[C@H]2O [CHASMANINE] | 53.29% | 61.64% | 90.55% | 69.59% | 72.47% |  |  |  |  |
| CCN1C[C@]2(COC)CC[C@H](OC)[C@]34C1[C@H]([C@H](OC)[C@H]23)[C@@]1(OC(C)=O)C[C@H](OC)[C@@]2(O)C[C@@H]4[C@@H]1[C@H]2OC(=O)c1ccc(OC)cc1 [CRASSICAULINE A] | 39.59% | 78.36% | 97.81% | 53.83% | 89.73% | 1134.5 ppm |  |  |  |
| CCN1C[C@]2(C)CC[C@H](O)[C@@]34C5C[C@@H]6[C@@H](OC)C[C@@](O)(C5[C@H]6O)[C@@H](CC23)C14 (some centres not stated) [KARACOLINE] | 43.84% | 65.07% | 92.96% | 54.66% | 77.95% | 395.2 ppm | 51.5 mg/kg | 298 mg/kg |  |
| CCN1C[C@]2(C)CC[C@H](OC)[C@]34C1[C@H](C[C@H]23)[C@@]1(O)C[C@H](OC)[C@H]2C[C@@H]4[C@@H]1[C@H]2O [SACHACONITINE] | 38.08% | 62.19% | 93.97% | 53.7% | 71.78% | 427.8 ppm |  |  |  |
| CCN1C[C@]2(COC)CC[C@H](OC)[C@]34C1[C@H](C[C@H]23)[C@@]1(O)C[C@H](OC)[C@H]2C[C@@H]4[C@@H]1[C@H]2O [TALATISAMINE] | 48.77% | 60.82% | 92.47% | 58.63% | 75.89% | 342.8 ppm |  |  |  |
| CC(=O)O[C@@H]1C[C@H](O)[C@@]23CO[C@@H](O)[C@]1(C)[C@@H]2C[C@@H](O)[C@]1(C)[C@@H]3C(=O)[C@H](OC(C)=O)[C@@]2(C)[C@H](c3ccoc3)C[C@H]3O[C@]321 [TOOSENDANIN] |  |  |  |  |  | 94.3 ppm |  |  |  |
| CCN1C[C@]2(COC)[C@H](O)C[C@H](OC)[C@]34C1[C@H]([C@H](OC)[C@H]23)[C@@]1(OC(C)=O)C[C@H](OC)[C@@]2(O)C[C@@H]4[C@@H]1[C@H]2OC(=O)c1ccc(OC)cc1 [YUNACONITINE] |  | 68.37% | 96.75% |  | 85.48% | 654.3 ppm |  |  | 2.97 mg/kg |

From ChEMBL document CHEMBL3044959, “Feeding deterrents from Aconitum episcopale roots against the red flour beetle, Tribolium castaneum” (J Agric Food Chem, 2011)
